Values of other authors as cited in article PMC11235333, “Glucagon-like peptide-1 stimulates acute secretion of pro-atrial natriuretic peptide from the isolated, perfused pig lung exposed to warm ischemia” (Frontiers in Transplantation, 2022).

System: lipopolyssacharide induced endotoxemia in rats
Conditions: lipopolysaccharide induced endotoxemia, after 3 h, ref Yanay et al.
Method: In studies with 24 h EVLP and transplantation of donor lungs, a rise of IL-8 concentration, proportional to the duration of warm ischaemia, was observed ([78], [79]). In the majority of studies investigating the anti-inflammatory effects of GPL-1 in the lungs, treatment was given more than 6 ...

## exendin-4
  Inflammatory cytokines: decreased IL-1α, IL-1β, IL-6, TNFα and IFNγ but not IL-10
